# Experiments:
# anthrax [1] = test system: anthrax; set-up: species or system human
# anthrax [2] = assay: microbe, parasite or virus in culture; assay type: cell-based; settings: Bacillus anthracis, read-out: MIC against anthrax, mid point adopted in the models
# inhalational anthrax = settings: human, in vivo; cited from earlier work
# [3] = test system: Bacillus anthracis spores; settings: rhesus monkey, in vivo; cited from earlier work
# [4] = test system: most other infectious organisms; settings: in vivo; cited from earlier work
# [5] = test system: gram positive and negative bacteria; settings: human, in vivo; cited from earlier work
structure (smiles),measurement,setting,value
O=C(O)c1cn(C2CC2)c2cc(N3CCNCC3)c(F)cc2c1=O [ciprofloxacin],drop of mortality rate,anthrax [1],2 folds
same,reduction of mortality rate with optimized regimens compared to currently recommended regimens,anthrax [1],up to 2 folds
same,MIC,anthrax [2],0.07 µg/mL
same,overall survival of the US patients,inhalational anthrax,55%
same,survival rate of anthrax patients treated with the drug,inhalational anthrax,50˜60%
same,protection from the disease,[3],adequately protected from the disease
same,survival rate of ciprofloxacin-treated animals,[3],90%
same,effectiveness against most other infectious organisms,[4],over 80%
same,MIC range of the bacteria in the literature study,[5],0.008 to 0.4 µg/mL
same,time to complete bacteria eradication,[5],more than 10 days
